Results reported in patent publication US12275745B2, “Therapeutic compounds and methods of use” (Genentech, Inc., priority 2021, dated 2025).

Columns and labels:
TEAD1 = TEAD1 (Homo sapiens, UniProt P28347); assay: TR-FRET (Lipid HTRF) TEAD lipid pocket probe displacement assay, TEAD1; format: binding; conditions: His-tagged TEAD1, biotinylated lipid pocket probe, 4 hours
TEAD3 = TEAD3 (Homo sapiens, UniProt Q99594); assay: TR-FRET (Lipid HTRF) TEAD lipid pocket probe displacement assay, TEAD3; format: binding; conditions: His-tagged TEAD3, biotinylated lipid pocket probe, 4 hours
Chain of TEAD3 (Q99594 whole entry, species assumed): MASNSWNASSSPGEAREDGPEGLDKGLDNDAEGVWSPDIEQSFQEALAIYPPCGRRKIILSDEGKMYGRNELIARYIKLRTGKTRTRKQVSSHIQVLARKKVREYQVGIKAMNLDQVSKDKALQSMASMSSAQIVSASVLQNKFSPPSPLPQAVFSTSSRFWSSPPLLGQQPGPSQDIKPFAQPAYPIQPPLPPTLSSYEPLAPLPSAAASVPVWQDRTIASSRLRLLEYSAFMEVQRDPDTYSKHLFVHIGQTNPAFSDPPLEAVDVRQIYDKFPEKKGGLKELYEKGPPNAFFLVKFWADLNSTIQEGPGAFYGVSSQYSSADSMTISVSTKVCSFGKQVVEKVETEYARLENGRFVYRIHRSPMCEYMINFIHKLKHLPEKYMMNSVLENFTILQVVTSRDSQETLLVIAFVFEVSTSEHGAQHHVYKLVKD
Procedure: (§1) His-tagged TEAD proteins are pre-incubated with TEAD project compounds for 30 minutes or 4 hours at room temperature. Biotinylated lipid pocket probes are then added to the TEAD/Compound mixture and incubated for 60 minutes at room temperature. The lipid pocket probe competes with the test compound for the TEAD lipid pocket until equilibrium is reached. After 60 minutes, Europium labelled anti-His (Perkin Elmer #AD0110) and XL665 labelled streptavidin (CIS Bio 610SAXAC) are added to the TEAD/test compound/lipid pocket mixture and incubated for 30 minutes or 4 hours. TR-FRET values are then measured using an EnVision multi-label plate reader (Perkin Elmer Cat #2104-001 0A.) If the lipid pocket probe binds to TEAD as expected, a TR-FRET signal results from the proximity of anti-His Eu and XL665. If a TEAD lipid pocket binder such as binds and displaces the lipid pocket probe, the disruption of the TEAD:probe interaction results in a decrease in TR-FRET signal. The potency of compounds as TEAD lipid pocket binders is determined by IC50 value generated using a non-linear 4 parameter curve fit.

TEAD4 = TEAD4 (Homo sapiens, UniProt Q15561); assay: TR-FRET (Lipid HTRF) TEAD lipid pocket probe displacement assay, TEAD4; format: binding; conditions: His-tagged TEAD4, biotinylated lipid pocket probe, 4 hours
Chain of TEAD4 (Q15561 whole entry, species assumed): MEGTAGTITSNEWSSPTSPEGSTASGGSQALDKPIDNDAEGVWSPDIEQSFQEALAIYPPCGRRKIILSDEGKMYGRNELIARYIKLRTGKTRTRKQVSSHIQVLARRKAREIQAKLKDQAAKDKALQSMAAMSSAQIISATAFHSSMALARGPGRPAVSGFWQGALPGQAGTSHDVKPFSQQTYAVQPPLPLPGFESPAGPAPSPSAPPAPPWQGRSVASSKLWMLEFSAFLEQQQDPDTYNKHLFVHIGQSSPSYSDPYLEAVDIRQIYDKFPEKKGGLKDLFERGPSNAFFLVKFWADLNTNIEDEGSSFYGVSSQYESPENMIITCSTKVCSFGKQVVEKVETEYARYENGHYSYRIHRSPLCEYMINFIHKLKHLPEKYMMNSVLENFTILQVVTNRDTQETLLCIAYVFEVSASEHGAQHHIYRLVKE
Procedure: as §1

TEAD2 = TEAD2 (Homo sapiens, UniProt Q15562); assay: biochemical;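 note: TR-FRET competition assay with His-tagged TEAD protein and a biotinylated lipid pocket probe, where probe displacement by compound lowers the signal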
Chain of TEAD2 (Q15562 whole entry, species assumed): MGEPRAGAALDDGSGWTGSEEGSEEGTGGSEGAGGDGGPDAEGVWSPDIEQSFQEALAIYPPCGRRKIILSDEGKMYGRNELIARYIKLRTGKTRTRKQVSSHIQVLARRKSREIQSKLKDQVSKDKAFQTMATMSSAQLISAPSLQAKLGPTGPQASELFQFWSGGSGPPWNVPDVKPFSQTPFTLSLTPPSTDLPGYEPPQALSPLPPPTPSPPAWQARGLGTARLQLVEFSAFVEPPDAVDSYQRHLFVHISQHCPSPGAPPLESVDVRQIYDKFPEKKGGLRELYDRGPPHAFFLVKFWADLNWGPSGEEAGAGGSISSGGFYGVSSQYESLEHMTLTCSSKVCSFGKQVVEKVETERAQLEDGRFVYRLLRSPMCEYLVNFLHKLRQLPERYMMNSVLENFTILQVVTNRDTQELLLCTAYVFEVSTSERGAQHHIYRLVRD

Chain of TEAD1 (P28347 whole entry, species assumed): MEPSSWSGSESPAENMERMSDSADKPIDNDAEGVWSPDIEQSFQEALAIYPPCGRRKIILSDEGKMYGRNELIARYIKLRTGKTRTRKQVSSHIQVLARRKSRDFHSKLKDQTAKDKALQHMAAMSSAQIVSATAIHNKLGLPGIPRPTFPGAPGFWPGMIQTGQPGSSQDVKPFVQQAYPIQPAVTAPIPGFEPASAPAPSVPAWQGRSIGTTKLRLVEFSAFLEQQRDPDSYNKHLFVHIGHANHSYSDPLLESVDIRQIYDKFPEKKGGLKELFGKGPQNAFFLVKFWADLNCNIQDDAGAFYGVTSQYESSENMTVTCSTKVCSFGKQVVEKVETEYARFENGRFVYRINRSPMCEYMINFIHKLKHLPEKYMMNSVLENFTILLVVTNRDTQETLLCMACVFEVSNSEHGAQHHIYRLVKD

SMILES	IC50 (TEAD1) [nM]	IC50 (TEAD3) [nM]	IC50 (TEAD4) [nM]	IC50 (TEAD2) [nM]
C=CC(=O)N(C)Cc1cc(-c2ccc(OC(F)(F)F)cc2)c2nccn2c1CO [Compound 36, N-[[5-(hydroxymethyl)-8-[4-(trifluoromethoxy)phenyl]imidazo[1,2-a]pyridin-6-yl]methyl]-N-methyl-prop-2-enamide]	44	89	37	100
C=C(F)C(=O)N1CC(c2cc(-c3ccc(OC(F)(F)F)cc3)c3ncn(C)c3c2CO)C1 [Compound 59, 2-fluoro-1-[3-[4-(hydroxymethyl)-3-methyl-7-[4-(trifluoromethoxy)phenyl]benzimidazol-5-yl]azetidin-1-yl]prop-2-en-1-one]	18	380	81	37
C=CC(=O)NCc1cc(-c2ccc(S(F)(F)(F)(F)F)cc2)c2c(c1[C@@H](O)CO)CCO2 (stereo in doubt) [Compound 97, N-[[7-[4-(pentafluoro-6-sulfanyl)phenyl]-4-[rac-(1S)-1,2-dihydroxyethyl]-2,3-dihydrobenzofuran-5-yl]methyl]prop-2-enamide]	27	590	18	19
C=CC(=O)NCc1cc(-c2ccc(OC(F)(F)F)cc2)c2ncccc2c1[C@@H](O)CO (single isomer, unassigned) [Compound 48]	22	1040	145	14.5
C=CC(=O)N(C)Cc1cc(-c2ccc(OC(F)(F)F)cc2)c2ncoc2c1[C@H](O)CO (single isomer, unassigned) [Compound 107]	100	780	36	20
C=CC(=O)NCc1cc(-c2ccc(OC(F)(F)F)cc2)c2ncoc2c1CO [Compound 113, N-((7-(Hydroxymethyl)-4-(4-(trifluoromethoxy)phenyl)benzo[d]oxazol-6-yl)methyl)acrylamide]	24	44	31	24
C=CC(=O)NCc1cc(-c2ccc(OC(F)(F)F)cc2)c2c(c1[C@@H](O)[C@@H](C)O)CCO2 (single isomer, unassigned) [Compound 90]	170	400	63	29
C=C(F)C(=O)N1CC(n2cc(-c3ccc(OC(F)(F)F)cc3)c3nccnc3c2=O)C1 [Compound 134, 6-(1-(2-Fluoroacryloyl)azetidin-3-yl)-8-(4-(trifluoromethoxy)phenyl)pyrido[3,4-b]pyrazin-5(6H)-one]	200	310	650	1700
C=CC(=O)NCc1nc(-c2ccc(OC(F)(F)F)cc2)c2nc(C)sc2n1 [Compound 35, N-[[2-methyl-7-[4-(trifluoromethoxy)phenyl]thiazolo[5,4-d]pyrimidin-5-yl]methyl]prop-2-enamide]	11	790	330	730
C=CC(=O)NCc1nc2c(c(-c3ccc(OC(F)(F)F)cc3)n1)OCC2 [Compound 13, N-[[4-[4-(trifluoromethoxy)phenyl]-6,7-dihydrofuro[3,2-d]pyrimidin-2-yl]methyl]prop-2-enamide]	86	170	35	320
C=CC(=O)NCc1cc(-c2ccc(OC(F)(F)F)cc2)c2cccnc2c1[C@@H](O)CO (single isomer, unassigned) [Compound 46]	22	79	125	6.15
C=CC(=O)NCc1cc(-c2ccc(OC(F)(F)F)cc2)c2nccnc2c1[C@@H](C)O (single isomer, unassigned) [Compound 82]	69	1800	240	15
C=C(F)C(=O)NCc1cc(-c2ccc(OC(F)(F)F)cc2)c2nccnc2c1[C@@H](O)CO [Compound 80, (R)-N-((5-(1,2-Dihydroxyethyl)-8-(4-(trifluoromethoxy)phenyl)quinoxalin-6-yl)methyl)-2-fluoroacrylamide]	130	840	740	110
C=CC(=O)NCc1cc(-c2ccc(OC(F)(F)F)cc2)c2c(c1[C@H](O)[C@H](C)O)CCO2 (single isomer, unassigned) [Compound 89]	160	4800	150	34
C=CC(=O)N(C)Cc1cc(-c2ccc(OC(F)(F)F)cc2)c2c(c1CO)CCO2 [Compound 88, N-((4-(Hydroxymethyl)-7-(4-(trifluoromethoxy)phenyl)-2,3-dihydrobenzofuran-5-yl)methyl)-N-methylacrylamide]	4.4	7.4	3.1	6.7
C=CC(=O)NCc1cc(-c2ccc(OC(F)(F)F)cc2)c2nccn2c1CO [Compound 5, N-((5-(hydroxymethyl)-8-(4-(trifluoromethoxy)phenyl)imidazo[1,2-a]pyridin-6-yl)methyl)acrylamide]	127	290	270	227
C=C(F)C(=O)N1CC(n2cc(-c3ccc(OC(F)(F)F)cc3)c3ncn(C)c3c2=O)C1 [Compound 136, 5-(1-(2-Fluoroacryloyl)azetidin-3-yl)-3-methyl-7-(4-(trifluoromethoxy)phenyl)-3,5-dihydro-4H-imidazo[4,5-c]pyridin-4-one]	18	47	12	30
CN(Cc1cc(-c2ccc(OC(F)(F)F)cc2)c2ncn(C)c2c1CO)C(=O)/C=C/CO [Compound 64, (E)-4-hydroxy-N-[[4-(hydroxymethyl)-3-methyl-7-[4-(trifluoromethoxy)phenyl]benzimidazol-5-yl]methyl]-N-methyl-but-2-enamide]	270	700	44	510
C=C(F)C(=O)NCc1cc(-c2ccc(OC(F)(F)F)cc2)c2c(c1C#N)CCO2 [Compound 67, N-[[4-cyano-7-[4-(trifluoromethoxy)phenyl]-2,3-dihydrobenzofuran-5-yl]methyl]-2-fluoro-prop-2-enamide]	93	420	140	340
C=CC(=O)NCc1cc(-c2ccc(OC(F)(F)F)cc2)c2nccn2c1CC [Compound 26, N-((5-ethyl-8-(4-(trifluoromethoxy)phenyl)imidazo[1,2-a]pyridin-6-yl)methyl)acrylamide]	140	510	180	62
C=CC(=O)N(C)Cc1cc(-c2ccc(OC(F)(F)F)cc2)c2ncccc2c1[C@H](O)CO (single isomer, unassigned) [Compound 51]	19	110	20	12
C=CC(=O)NCc1cc(-c2ccc(OC(F)(F)F)cc2)c2ncsc2c1-c1noc(=O)[nH]1 [Compound 104, N-((7-(5-Oxo-4,5-dihydro-1,2,4-oxadiazol-3-yl)-4-(4-(trifluoromethoxy)phenyl)benzo[d]thiazol-6-yl)methyl)acrylamide]	95	27	40	80
Cn1cnc2c(-c3ccc(OC(F)(F)F)cc3)cn(C3CN(C(=O)/C=C/CO)C3)c(=O)c21 [Compound 137, (E)-5-(1-(4-Hydroxybut-2-enoyl)azetidin-3-yl)-3-methyl-7-(4-(trifluoromethoxy)phenyl)-3,5-dihydro-4H-imidazo[4,5-c]pyridin-4-one]	75	95	14	94
C=CC(=O)NCc1cc(-c2ccc(S(F)(F)(F)(F)F)cc2)c2c(c1[C@H](O)CO)CCO2 (stereo in doubt) [Compound 96, N-[[7-[4-(Pentafluoro-6-sulfanyl)phenyl]-4-[rac-(1R)-l,2-dihydroxyethyl]-2,3-dihydrobenzofuran-5-yl]methyl]prop-2-enamide]	43	72	23	33
C=CC(=O)NCc1cc(-c2ccc(OC(F)(F)F)cc2)c2nccnc2c1CO [Compound 84, N-((5-(Hydroxymethyl)-8-(4-(trifluoromethoxy)phenyl)quinoxalin-6-yl)methyl)acrylamide]	26.7	38.7	48	21
C=CC(=O)NCc1cc(Oc2ccc(C(F)(F)F)cc2)c2ncccc2c1[C@H](O)CO (single isomer, unassigned) [Compound 147]	110	610	890	19
C=C1CCN(Cc2nc(-c3ccc(OC(F)(F)F)cc3)c3ncn(C)c3n2)C1=O [Compound 129, 1-((9-Methyl-6-(4-(trifluoromethoxy)phenyl)-9H-purin-2-yl)methyl)-3-methylenepyrrolidin-2-one]	600	1350	24.5	1100
C=CC(=O)NCc1nc(-c2ccc(OC(F)(F)F)cc2)nc2c1ncn2C [Compound 133, N-((9-Methyl-2-(4-(trifluoromethoxy)phenyl)-9H-purin-6-yl)methyl)acrylamide]	52	420	28	360
C=CC(=O)NCc1nc(-c2ccc(OC(F)(F)F)cc2)c2ccccc2n1 [Compound 7, N-((4-(4-(trifluoromethoxy)phenyl)quinazolin-2-yl)methyl)acrylamide]	18	230	40	640
C=CC(=O)N(C)Cc1cc(-c2ccc(OC(F)(F)F)cc2)c2c(c1C#N)CCO2 [Compound 95, N-((4-cyano-7-(4-(trifluoromethoxy)phenyl)-2,3-dihydrobenzofuran-5-yl)methyl)-N-methylacrylamide]	8.6	9.5	3.8	8.8
